Data as given in the supplement of paper PMC10307832.

How the values were obtained:
Assay in all cases: relative viability (nuclei count vs DMSO), 5 days (fraction); higher = more cells survive
[1] = compound: Cc1ccc(Nc2nccc(N(C)c3ccc4c(C)n(C)nc4c3)n2)cc1S(N)(=O)=O [Pazopanib] + CS(=O)(=O)N1CCN(Cc2cc3nc(-c4cccc5[nH]ncc45)nc(N4CCOCC4)c3s2)CC1 [Pictilisib] (partner 1 µM)
How it was run: (§1)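 Dosing by pin tool came one day after lung cancer cell lines were seeded in 1536-well plates, using either one drug or a fixed anchor-drug dose plus five library-drug doses (not always all listed) in √10 steps. After 5 days, nuclei were counted on 4× images. Relative viability is treated-well nuclei count divided by vehicle-well nuclei count, and values are medians of duplicate plates.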

[2] = compound: Cc1ccc(C(=O)Nc2ccc(CN3CCN(C)CC3)c(C(F)(F)F)c2)cc1C#Cc1cnc2cccnn12 [Ponatinib] + CCNC(=O)c1noc(-c2cc(C(C)C)c(O)cc2O)c1-c1ccc(CN2CCOCC2)cc1 [Luminespib] (partner 0.01 µM)
How it was run: as §1

[3] = compound: Cc1ccc(C(=O)Nc2ccc(CN3CCN(C)CC3)c(C(F)(F)F)c2)cc1C#Cc1cnc2cccnn12 [Ponatinib] + CC(=O)Nc1cccc(-n2c(=O)n(C3CC3)c(=O)c3c(Nc4ccc(I)cc4F)n(C)c(=O)c(C)c32)c1 [Trametinib] (partner 0.02 µM)
How it was run: as §1

[4] = compound: Cc1ccc(Nc2nccc(N(C)c3ccc4c(C)n(C)nc4c3)n2)cc1S(N)(=O)=O [Pazopanib] + O=C(c1cc(Cc2n[nH]c(=O)c3ccccc23)ccc1F)N1CCN(C(=O)C2CC2)CC1 [Olaparib] (partner 8 µM)
How it was run: as §1

| Cell Line | relative viability ([1]; first compound 0.01 µM) | relative viability ([1]; first compound 0.03162 µM) | relative viability ([1]; first compound 0.1 µM) | relative viability ([1]; first compound 0.3162 µM) | relative viability ([1]; first compound 1 µM) | relative viability ([2]; first compound 0.002 µM) | relative viability ([2]; first compound 0.006325 µM) | relative viability ([2]; first compound 0.06325 µM) | relative viability ([2]; first compound 0.2 µM) | relative viability ([3]; first compound 0.002 µM) | relative viability ([3]; first compound 0.006325 µM) | relative viability ([3]; first compound 0.06325 µM) | relative viability ([3]; first compound 0.2 µM) | relative viability ([4]; first compound 0.01 µM) | relative viability ([4]; first compound 0.03162 µM) | relative viability ([4]; first compound 0.1 µM) | relative viability ([4]; first compound 0.3162 µM) | relative viability ([4]; first compound 1 µM) |
| --- | --- | --- | --- | --- | --- | --- | --- | --- | --- | --- | --- | --- | --- | --- | --- | --- | --- | --- |
| NCI-H1915 | 0.905 | 0.972 | 0.976 | 0.971 | 0.899 | 0.754 | 0.769 | 0.805 | 0.672 | 0.303 | 0.321 | 0.288 | 0.24 | 0.257 | 0.241 | 0.275 | 0.229 | 0.227 |
| NCI-H1944 | 0.303 | 0.346 | 0.344 | 0.39 | 0.358 | 0.666 | 0.684 | 0.833 | 0.743 | 0.426 | 0.465 | 0.49 | 0.409 | 0.425 | 0.353 | 0.424 | 0.418 | 0.475 |
| NCI-H1975 | 0.263 | 0.281 | 0.316 | 0.309 | 0.338 | 0.248 | 0.24 | 0.289 | 0.165 | 0.367 | 0.445 | 0.469 | 0.294 | 0.76 | 0.829 | 0.775 | 0.785 | 0.756 |
| NCI-H1993 | 0.8 | 0.828 | 0.709 | 0.801 | 0.789 | 0.778 | 0.921 | 0.991 | 0.932 | 0.539 | 0.506 | 0.64 | 0.572 | – | 1.03 | 1.21 | 1.09 | 1.15 |
| NCI-H2009 | 0.748 | 0.803 | 0.786 | 0.859 | 0.947 | 0.975 | 0.967 | 1.02 | 0.918 | 0.284 | 0.253 | 0.189 | 0.165 | 0.746 | 0.699 | 0.686 | 0.677 | 0.456 |
| NCI-H2023 | 0.173 | 0.202 | 0.278 | 0.25 | 0.277 | 0.749 | 0.749 | 0.748 | 0.543 | 0.555 | 0.625 | 0.64 | 0.523 | 0.441 | 0.487 | 0.516 | 0.466 | 0.45 |
| NCI-H2085 | 0.413 | 0.463 | 0.47 | 0.429 | 0.443 | 0.459 | 0.459 | 0.446 | 0.432 | 0.482 | 0.557 | 0.675 | 0.568 | 0.821 | 0.759 | 0.796 | 0.704 | 0.713 |
| NCI-H2087 | 0.784 | 0.951 | 0.85 | 0.963 | 1.01 | 0.167 | 0.135 | 0.178 | 0.176 | 0.217 | 0.201 | 0.131 | 0.153 | 0.72 | 0.7 | 0.745 | 0.549 | 0.568 |
| NCI-H2126 | 0.443 | 0.472 | 0.559 | 0.444 | 0.531 | 0.874 | 0.955 | 1.04 | 0.873 | 0.564 | 0.576 | 0.691 | 0.578 | 0.825 | 0.908 | 0.988 | 0.946 | 0.887 |
| NCI-H2170 | 0.261 | 0.299 | 0.315 | 0.354 | 0.317 | 0.671 | 0.697 | 0.665 | 0.646 | 0.865 | 0.962 | 0.899 | 0.867 | 0.669 | 0.561 | 0.693 | 0.547 | 0.56 |
| NCI-H2228 | 0.46 | 0.386 | 0.328 | 0.393 | 0.511 | 0.134 | 0.178 | 0.109 | 0.129 | 0.546 | 0.656 | 0.495 | 0.547 | 0.829 | 0.492 | 0.611 | 0.574 | 0.48 |
| NCI-H2347 | 0.513 | 0.648 | 0.417 | 0.601 | 0.548 | 0.6 | 0.544 | 0.487 | 0.435 | 0.241 | 0.272 | 0.332 | 0.264 | 0.541 | 0.609 | 0.538 | 0.575 | 0.558 |
| NCI-H2405 | 0.321 | 0.514 | 0.424 | 0.583 | 0.586 | 0.664 | 0.833 | 0.941 | 0.64 | 0.557 | 0.611 | 0.435 | 0.342 | 0.824 | 0.89 | 0.958 | 0.907 | 0.983 |
| NCI-H3122 | 0.516 | 0.638 | 0.689 | 0.688 | 0.803 | 0.113 | 0.0854 | 0.128 | 0.109 | 0.256 | 0.199 | 0.241 | 0.209 | 0.7 | 0.572 | 0.607 | 0.636 | 0.599 |
| PC-3 [JPC-3] | 0.745 | 0.707 | 0.808 | 0.73 | 0.716 | 0.649 | 0.697 | 0.811 | 0.668 | – | 0.769 | 0.88 | 0.699 | – | 1.15 | 1.18 | 1.11 | 1.02 |
| PC-14 | 0.64 | 0.612 | 0.88 | 0.637 | 0.686 | 0.127 | 0.147 | 0.195 | 0.138 | 0.701 | 0.727 | 0.859 | 0.794 | 0.335 | 0.329 | 0.371 | 0.235 | 0.319 |
| RERF-LC-KJ | 0.447 | 0.562 | 0.559 | 0.495 | 0.487 | 1.17 | 1.32 | 1.47 | 1.21 | 0.826 | 0.803 | 1.03 | 0.852 | 0.805 | 0.938 | 0.947 | 0.785 | 0.583 |
